One compound from patent publication US20260048155A1, “BIOCOMPATIBLE PARAHYDROGEN HYPERPOLARIZED SOLUTIONS BY PRECIPITATION AND RE-DISSOLUTION” (North Carolina State University, priority 2022, published 2026) can be followed below.

The data set can be described thus: Titration study of sodium pyruvate solubility / precipitation from methanol by added solvent. It counts as physicochemical. How it is done:
Precipitating and filtering of pyruvate from solutions using thermally polarized natural-abundance sodium pyruvate: Considering the finding of low pyruvate solubility herein, ethanol was an obvious first choice as the precipitating solvent. […] Other candidates (acetone, 1-propanol, and ethyl acetate) were tested next. All three solvents mixed with methanol and dissolved 6 mM of SABRE catalyst well. […] For each of the three solvents (FIG. 11) eight 500-μL batches of methanol containing different concentrations of pyruvate were prepared (cpyr∈[80, 60, 40, 30, 20, 8, 4, 2] mM). Then, 9.5 mL of the respective precipitating solvent were added to each sample. In all 80 mM samples, prominent and almost instantaneous precipitation was observed as the solutions lost transparency and became milky. For 1-propanol, acetone, and ethyl acetate, precipitation was visible for all mixtures with 40 mM, 20 mM, and 4 mM or more initial concentration of pyruvate, respectively. Additionally, as ethyl acetate and water are immiscible, a later purification of this solvent was expected to be advantageous (see below). Based on these observations, the rest of the study was continued with acetone and ethyl acetate.

The structures appear in SMILES notation.

Consider `CC(=O)C(=O)[O-].[Na+]` [sodium pyruvate], for which the “precipitation on ethanol addition” value (9-fold volume of ethanol added to 80 mM in methanol) is “no precipitation was detected”. The “initial pyruvate concentration in methanol at which precipitation was visible” value runs as follows: (500 μL methanol + 9.5 mL 1-propanol) not below 40 mM; (500 μL methanol + 9.5 mL acetone) not below 20 mM; (500 μL methanol + 9.5 mL ethyl acetate) not below 4 mM.
